Laboratory results as given in patent publication US20230146455A1, “TREATMENT OF INFLAMMATORY DISEASES WITH PEPTIDES AND PHARMACEUTICAL COMPOSITIONS” (Yuyu Pharma, Inc., priority 2020, published 2023).
Where “and” joins values, the source holds several entries; their conditions need not be identical. Equal values may be shown once. Where a SMILES comes first, the peptide text is derived from it. [ ]: non-standard residue; d: D form. Hyp = O=C(O)[C@@H]1C[C@@H](O)CN1

Test system: IL-17A
Test: Example 9 Luminex, LPS hPBMCs: IL-17A
Type: cell-based, human
Description: Treatment Human PBMCs were pretreated with YY-101, YDE-011 and YDE-043 or reference compound; Xiidra® at various concentration (ranging from 1 nM to 100 uM) for 2 h before stimulation. An equal volume of 0.5% DMSO was used as a vehicle control. Then, the cells were treated with LPS at 5 ug/ml. The supernatants from treated cells were harvested at 24 h and placed in a 96 well for Luminex cytokine & chemokine profiling using a Luminex 200 multiplex assay (Luminex; R&D system, USA).
The main study arm with triplicate wells per group in a 24-well plate: • 1. Blank • 2. PBMC: 0.5% DMSO • 3. PBMC+LPS (5 ug/ml) • 4. PBMC+YY-101 100 uM • 5. PBMC+YY-101 10 uM • 6. PBMC+YY-101 1 uM • 7. PBMC+YY-101 0.1 uM • 8. PBMC+YY-101 0.01 uM • 9. PBMC+LPS (5 ug/ml)+Xiidra®100 uM • 10. PBMC+LPS (5 ug/ml)+Xiidra® 10 uM • 11. PBMC+LPS (5 ug/ml)+Xiidra® 1 uM • 12. PBMC+LPS (5 ug/ml)+Xiidra®0.1 uM • 13. PBMC+LPS (5 ug/ml)+Xiidra®0.01 uM • 14. PBMC+LPS (5 ug/ml)+Xiidra®0.001 uM • 15. PBMC+LPS (5 ug/ml)+YY-101 100 uM • 16. PBMC+LPS (5 ug/ml)+YY-101 10 uM • 17. PBMC+LPS (5 ug/ml)+YY-101 1 uM • 18. PBMC+LPS (5 ug/ml)+YY-101 0.1 uM • 19. PBMC+LPS (5 ug/ml)+YY-101 0.01 uM • 20. PBMC+LPS (5 ug/ml)+YY-101 0.001 uM • 21. PBMC+LPS (5 ug/ml)+YDE-011 100 uM • 22. PBMC+LPS (5 ug/ml)+YDE-011 10 uM • 23. PBMC+LPS (5 ug/ml)+YDE-011 1 uM • 24. PBMC+LPS (5 ug/ml)+YDE-011 0.1 uM • 25. PBMC+LPS (5 ug/ml)+YDE-011 0.01 uM • 26. PBMC+LPS (5 ug/ml)+YDE-011 0.001 uM • 27. PBMC+LPS (5 ug/ml)+YDE-043 100 uM • 28. PBMC+LPS (5 ug/ml)+YDE-043 10 uM • 29. PBMC+LPS (5 ug/ml)+YDE-043 1 uM • 30. PBMC+LPS (5 ug/ml)+YDE-043 0.1 uM • 31. PBMC+LPS (5 ug/ml)+YDE-043 0.01 uM • 32. PBMC+LPS (5 ug/ml)+YDE-043 0.001 uM
Multiplex assay was used to measure 30 cytokines and chemokines. The 1:2, 1:10 and 1:200 diluted cell supernatant and serial dilution of the standard were dispensed into a 96 well plate at 50 ul/well. Then, the pre-mixed cocktail of antibody-coated magnetic beads was dispensed at 50 ul/well and incubated at room temperature for 2 h in a horizontal orbital microplate shaker at 800±500 rpm. The beads were washed using a magnetic device to prevent loss. The biotin-antibody was dispensed in 50 ul of each well and incubated at room temperature for 1 h in a shaker at 800±500 rpm. After washing, streptavidin-PE was added at 50 ul/well and incubated at room temperature for 30 min in a shaker under the same conditions. Finally, after washing, wash buffer (100 ul/well) was added to the plate and incubated in a shaker for 2 min. The Luminex™ 200 setting were set according to the manufacturer's protocol. The data was calculated with a standard five-parameter logistic nonlinear regression analysis of the data (xPonent software 4.2, USA). The levels of cytokine/chemokine are normalized to the live cell counts (1×10^5 cells/mL) and presented as concentrations per mL (pg/mL or ng/mL).

[1] = PBMC + LPS(5 ug/ml) + test article 0.001 uM, Mean
[2] = PBMC + LPS(5 ug/ml) + test article 0.001 uM, single replicates (1st, 2nd, 3rd)
[3] = PBMC + LPS(5 ug/ml) + test article 0.01 uM, Mean
[4] = PBMC + LPS(5 ug/ml) + test article 0.01 uM, single replicates (1st, 2nd, 3rd)
[5] = PBMC + LPS(5 ug/ml) + test article 0.1 uM, Mean
[6] = PBMC + LPS(5 ug/ml) + test article 0.1 uM, single replicates (1st, 2nd, 3rd)
[7] = PBMC + LPS(5 ug/ml) + test article 1 uM, Mean
[8] = PBMC + LPS(5 ug/ml) + test article 1 uM, single replicates (1st, 2nd, 3rd)
[9] = PBMC + LPS(5 ug/ml) + test article 10 uM, Mean
[10] = PBMC + LPS(5 ug/ml) + test article 10 uM, single replicates (1st, 2nd, 3rd)
[11] = PBMC + LPS(5 ug/ml) + test article 100 uM, Mean
[12] = PBMC + LPS(5 ug/ml) + test article 100 uM, single replicates (1st, 2nd, 3rd)
[13] = PBMC without LPS + test article 0.01 uM, Mean
[14] = PBMC without LPS + test article 0.01 uM, single replicates (1st, 2nd)
[15] = PBMC without LPS + test article 0.1 uM, Mean
[16] = PBMC without LPS + test article 0.1 uM, single replicates (1st, 2nd)
[17] = PBMC without LPS + test article 1 uM, Mean
[18] = PBMC without LPS + test article 1 uM, single replicates (1st, 2nd)
[19] = PBMC without LPS + test article 10 uM, Mean
[20] = PBMC without LPS + test article 10 uM, single replicates (1st, 2nd)
[21] = PBMC without LPS + test article 100 uM, Mean
[22] = PBMC without LPS + test article 100 uM, single replicates (1st, 2nd)

SMILES: CC(C)C[C@H](NC(=O)CNC(=O)[C@H](CC(=O)O)NC(=O)[C@H](CCC(N)=O)NC(=O)CNC(=O)[C@@H]1C[C@@H](O)CN1)C(=O)N[C@@H](C)C(=O)NCC(=O)N1CCC[C@H]1C(=O)N[C@@H](CCCCN)C(=O)O [YY-101] (H-[Hyp]GQDGLAGPK-OH; N-terminus and C-terminus assumed)
- Concentration, IL-17A [1]: 3.8 pg/mL
- MFI, Bead name: IL-17A [1]: 2.2
- conc/live cell, IL-17A [1]: 0.6 pg/10^5
- Concentration, IL-17A [2]: 4.3 pg/ml (2×) and 2.7 pg/ml
- MFI, Bead name: IL-17A [2]: 2.5 (2×) and 1.5
- conc/live cell, IL-17A [2]: 0.8 pg/10^5 and 0.6 pg/10^5 and 0.4 pg/10^5
- Concentration, IL-17A [3]: 4.9 pg/mL
- MFI, Bead name: IL-17A [3]: 2.8
- conc/live cell, IL-17A [3]: 0.8 pg/10^5
- Concentration, IL-17A [4]: 6.0 pg/ml (2×) and 2.7 pg/ml
- MFI, Bead name: IL-17A [4]: 3.5 (2×) and 1.5
- conc/live cell, IL-17A [4]: 0.9 pg/10^5 and 1.0 pg/10^5 and 0.4 pg/10^5
- Concentration, IL-17A [5]: 4.3 pg/mL
- MFI, Bead name: IL-17A [5]: 2.5
- conc/live cell, IL-17A [5]: 0.7 pg/10^5
- Concentration, IL-17A [6]: 6.0 pg/ml (2×) and 1.0 pg/ml
- MFI, Bead name: IL-17A [6]: 3.5 (2×) and 0.5
- conc/live cell, IL-17A [6]: 1.0 pg/10^5 (2×) and 0.2 pg/10^5
- Concentration, IL-17A [7]: 5.4 pg/mL
- MFI, Bead name: IL-17A [7]: 3.2
- conc/live cell, IL-17A [7]: 0.8 pg/10^5
- Concentration, IL-17A [8]: 4.3 pg/ml (2×) and 7.5 pg/ml
- MFI, Bead name: IL-17A [8]: 2.5 (2×) and 4.5
- conc/live cell, IL-17A [8]: 0.7 pg/10^5 and 0.6 pg/10^5 and 1.2 pg/10^5
- Concentration, IL-17A [9]: 3.3 pg/mL
- MFI, Bead name: IL-17A [9]: 1.8
- conc/live cell, IL-17A [9]: 0.5 pg/10^5
- Concentration, IL-17A [10]: 4.3 pg/ml and 2.7 pg/ml (2×)
- MFI, Bead name: IL-17A [10]: 2.5 and 1.5 (2×)
- conc/live cell, IL-17A [10]: 0.7 pg/10^5 and 0.4 pg/10^5 (2×)
- Concentration, IL-17A [11]: 1.6 pg/mL
- MFI, Bead name: IL-17A [11]: 0.8
- conc/live cell, IL-17A [11]: 0.3 pg/10^5
- Concentration, IL-17A [12]: 1.0 pg/ml (2×) and 2.7 pg/ml
- MFI, Bead name: IL-17A [12]: 0.5 (2×) and 1.5
- conc/live cell, IL-17A [12]: 0.2 pg/10^5 (2×) and 0.4 pg/10^5
- Concentration, IL-17A [13]: 7.5 pg/mL
- MFI, Bead name: IL-17A [13]: 4.5
- conc/live cell, IL-17A [13]: 1.5 pg/10^5
- Concentration, IL-17A [14]: 7.5 pg/mL
- MFI, Bead name: IL-17A [14]: 4.5
- conc/live cell, IL-17A [14]: 1.5 pg/10^5 and 1.6 pg/10^5
- Concentration, IL-17A [15]: 8.3 pg/mL
- MFI, Bead name: IL-17A [15]: 5.0
- conc/live cell, IL-17A [15]: 1.5 pg/10^5
- Concentration, IL-17A [16]: 4.3 pg/mL and 12.2 pg/mL
- MFI, Bead name: IL-17A [16]: 2.5 and 7.5
- conc/live cell, IL-17A [16]: 1.0 pg/10^5 and 2.1 pg/10^5
- Concentration, IL-17A [17]: 5.2 pg/mL
- MFI, Bead name: IL-17A [17]: 3.0
- conc/live cell, IL-17A [17]: 0.9 pg/10^5
- Concentration, IL-17A [18]: 6.0 pg/mL and 4.3 pg/mL
- MFI, Bead name: IL-17A [18]: 3.5 and 2.5
- conc/live cell, IL-17A [18]: 1.1 pg/10^5 and 0.8 pg/10^5
- Concentration, IL-17A [19]: 18.3 pg/mL
- MFI, Bead name: IL-17A [19]: 11.5
- conc/live cell, IL-17A [19]: 2.9 pg/10^5
- Concentration, IL-17A [20]: 22.9 pg/mL and 13.8 pg/mL
- MFI, Bead name: IL-17A [20]: 14.5 and 8.5
- conc/live cell, IL-17A [20]: 3.6 pg/10^5 and 2.3 pg/10^5
- Concentration, IL-17A [21]: 3.5 pg/mL
- MFI, Bead name: IL-17A [21]: 2.0
- conc/live cell, IL-17A [21]: 0.5 pg/10^5
- Concentration, IL-17A [22]: 2.7 pg/mL and 4.3 pg/mL
- MFI, Bead name: IL-17A [22]: 1.5 and 2.5
- conc/live cell, IL-17A [22]: 0.4 pg/10^5 and 0.6 pg/10^5
